For 26 compounds, T/C results are on record in PubChem BioAssay AID256 (DTP/NCI, 2004).

Values joined by “and” are separate entries in the source; they are usually repeats but may differ in a detail not shown here. Equal values may be shown once. Inconclusive results and toxic doses are left out.

The assay has as its system CD2F1 mice, L1210 leukemia ip, survival T/C. As to the kind of experiment: NCI In Vivo Anticancer Drug Screen. Data for tumor model L1210 Leukemia (intraperitoneal) in CD2F1 (CDF1) mice. Particulars: endpoint: mean survival time, higher = longer survival. Put shortly: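 Vehicle-treated tumor-bearing mice served as controls (C) for compound-treated mice (T). Reported figure is T divided by C.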

[1] abbreviates: dose: 100.0 mg/kg/injection, schedule: Q01DX009 (ip), vehicle: saline with Tween-80.
Where [2] appears, read: dose: 200.0 mg/kg/injection, schedule: Q01DX009 (ip), vehicle: saline with Tween-80.
Where [3] appears, read: dose: 400.0 mg/kg/injection, schedule: Q01DX009 (ip), vehicle: saline with Tween-80.
Where [4] appears, read: dose: 100.0 mg/kg/injection, schedule: Q04DX002 (ip), vehicle: saline with Tween-80.
The mark [5] stands for this setting: dose: 200.0 mg/kg/injection, schedule: Q04DX002 (ip), vehicle: saline with Tween-80.
[6] abbreviates: dose: 400.0 mg/kg/injection, schedule: Q04DX002 (ip), vehicle: saline with Tween-80.
Setting [7] is: dose: 100.0 mg/kg/injection, schedule: Q01DX001 (ip), vehicle: saline with Tween-80.
Setting [8] is: dose: 400.0 mg/kg/injection, schedule: Q01DX001 (ip), vehicle: saline with Tween-80.
The mark [9] stands for this setting: dose: 100.0 mg/kg/injection, schedule: Q04DX003 (ip), vehicle: saline with Tween-80.
[10] abbreviates: dose: 200.0 mg/kg/injection, schedule: Q04DX003 (ip), vehicle: saline with Tween-80.
[11] abbreviates: dose: 400.0 mg/kg/injection, schedule: Q04DX003 (ip), vehicle: saline with Tween-80.
Where [12] appears, read: dose: 100.0 mg/kg/injection, schedule: Q04DX003 (ip), vehicle: Klucel (hydroxypropylcellulose) (HPC).
Where [13] appears, read: dose: 200.0 mg/kg/injection, schedule: Q04DX003 (ip), vehicle: Klucel (hydroxypropylcellulose) (HPC).
[14] abbreviates: dose: 400.0 mg/kg/injection, schedule: Q04DX003 (ip), vehicle: Klucel (hydroxypropylcellulose) (HPC).
Where [15] appears, read: dose: 100.0 mg/kg/injection, schedule: Q01DX009 (ip), vehicle: Klucel (hydroxypropylcellulose) (HPC).
The mark [16] stands for this setting: dose: 200.0 mg/kg/injection, schedule: Q01DX009 (ip), vehicle: Klucel (hydroxypropylcellulose) (HPC).

On to `c1ccc(COCc2ccccc2Cn2ccnc2)cc1`, for which the T/C was 120 % of control (dose: 10.0 mg/kg/injection, schedule: Q04DX003 (ip), vehicle: saline); 101 % of control (dose: 20.0 mg/kg/injection, schedule: Q04DX003 (ip), vehicle: saline); 95 % of control (dose: 40.0 mg/kg/injection, schedule: Q04DX003 (ip), vehicle: saline).
`CCCCOC(=O)CCC(NC(=O)c1ccc(N(C)Cc2cnc3nc(N)nc(N)c3n2)cc1)C(=O)OCCCC` (stereo unspecified): the T/C by setting is: (dose: 0.09 mg/kg/injection, schedule: Q01DX009 (ip), vehicle: distilled water + Tween-80) 108 % of control; (dose: 0.19 mg/kg/injection, schedule: Q01DX009 (ip), vehicle: distilled water + Tween-80) 113 % of control and 91 % of control; (dose: 0.75 mg/kg/injection, schedule: Q01DX009 (ip), vehicle: distilled water + Tween-80) 108 % of control; (dose: 1.5 mg/kg/injection, schedule: Q01DX009 (ip), vehicle: distilled water + Tween-80) 89 % of control.
Regarding `O=C(CNC(=O)c1ccccc1)N/N=C/c1ccco1`, the T/C reads like this: under setting [1], 94 % of control; under setting [2], 90 % of control; under setting [3], 95 % of control.
In the case of `CCSCCCO`, the T/C was 95 % of control (dose: 75.0 mg/kg/injection, schedule: Q04DX003 (ip), vehicle: saline); 97 % of control (dose: 150.0 mg/kg/injection, schedule: Q04DX003 (ip), vehicle: saline); 103 % of control (dose: 300.0 mg/kg/injection, schedule: Q04DX003 (ip), vehicle: saline).
For `CCOC(=O)/C(C#N)=N/Nc1cccc(Cl)c1Cl`, the T/C runs as follows: under setting [4], 96 % of control; under setting [5], 96 % of control; under setting [6], 100 % of control.
As for `CC(=O)Nc1ccc(C)cc1Cl`, the T/C is, setting by setting: under setting [7], 96 % of control; (dose: 200.0 mg/kg/injection, schedule: Q01DX001 (ip), vehicle: saline with Tween-80) 100 % of control; under setting [8], 93 % of control.
Consider `CC(=O)OCC(=O)C1(O)CCC2C3CCC4=CC(=O)CCC4(C)C34OC4CC21C` (stereo unspecified), for which the T/C reads like this: under setting [1], 98 % of control; under setting [2], 94 % of control; under setting [3], 91 % of control.
`C=CN(C)OC`: the T/C (dose: 100.0 mg/kg/injection, schedule: Q01DX001 (ip), vehicle: saline) was 100 % of control.
For the compound `O=C1Nc2ccc3c4c(ccc1c24)CC3`, the T/C was 105 % of control under setting [7] and 94 % of control under setting [8].
Take `NC1=C(N)C(=O)NC(N)N1` (stereo unspecified): the T/C is, setting by setting: (dose: 100.0 mg/kg/injection, schedule: Q04DX002 (ip), vehicle: saline) 102 % of control; (dose: 200.0 mg/kg/injection, schedule: Q04DX002 (ip), vehicle: saline) 102 % of control; (dose: 400.0 mg/kg/injection, schedule: Q04DX002 (ip), vehicle: saline) 100 % of control.
Take `N/C(=N\OCc1ccccc1)c1ncn(C2CCCC2)c1N`: the T/C (dose: 75.0 mg/kg/injection, schedule: Q01DX001 (ip), vehicle: other) is 102 % of control; the T/C (dose: 150.0 mg/kg/injection, schedule: Q01DX001 (ip), vehicle: other) is 106 % of control; the T/C (dose: 300.0 mg/kg/injection, schedule: Q01DX001 (ip), vehicle: other) is 103 % of control.
Take `O=C1COC(=O)N1`: the T/C by setting is: under setting [9], 107 % of control; under setting [10], 94 % of control; under setting [11], 96 % of control.
`C(=N\Nc1nc2ccccc2s1)/c1cccnc1`: the T/C under setting [12] was 97 % of control, the T/C under setting [13] was 94 % of control and the T/C under setting [14] is 100 % of control.
As for `Cc1cc(=O)c(C(=O)NC/C(C#N)=C\c2ccccc2)c(C)[nH]1`, the T/C by setting is: under setting [4], 93 % of control; under setting [6], 100 % of control.
For the compound `C=CC[N+]12CC=C3COC(=O)C(C)(O)C(C)(O)C(C)C(=O)OC(CC1)C32` (stereo unspecified), the T/C is 101 % of control under setting [12], 90 % of control under setting [13] and 93 % of control under setting [14].
`COC(=O)C(C(=O)OC)c1ccc(C)c(OC)c1`: the T/C was 97 % of control under setting [1]; 104 % of control under setting [9]; 98 % of control under setting [2]; 104 % of control under setting [10]; 97 % of control under setting [3]; 102 % of control under setting [11].
Take `CSc1cccc(NC(=O)OCCOc2ccc(NC(C)=O)cc2)c1`: the T/C reads like this: under setting [1], 101 % of control; under setting [2], 97 % of control; under setting [3], 93 % of control.
Regarding `O=C(O)c1cc(C(=O)O)c(C(=O)O)cc1C(=O)O.[NH-]C1CCCC1.[NH-]C1CCCC1.[NH-]C1CCCC1.[NH-]C1CCCC1.[Pt+2].[Pt+2]`, the T/C runs as follows: (dose: 3.12 mg/kg/injection, schedule: Q04DX003 (ip), vehicle: distilled water + Tween-80) 103 % of control; (dose: 6.25 mg/kg/injection, schedule: Q04DX003 (ip), vehicle: distilled water + Tween-80) 107 % of control; (dose: 12.5 mg/kg/injection, schedule: Q04DX003 (ip), vehicle: distilled water + Tween-80) 108 % of control; (dose: 25.0 mg/kg/injection, schedule: Q04DX003 (ip), vehicle: distilled water + Tween-80) 111 % of control; (dose: 50.0 mg/kg/injection, schedule: Q04DX003 (ip), vehicle: distilled water + Tween-80) 108 % of control; (dose: 100.0 mg/kg/injection, schedule: Q04DX003 (ip), vehicle: distilled water + Tween-80) 113 % of control. Further, the T/C (dose: 200.0 mg/kg/injection, schedule: Q04DX003 (ip), vehicle: distilled water + Tween-80) was 124 % of control.
As to `CCCCOC(=O)c1ccccc1C(=O)O.CCCCOC(=O)c1ccccc1C(=O)O.[Cu+2]`, the T/C by setting is: (dose: 6.25 mg/kg/injection, schedule: Q04DX003 (ip), vehicle: saline with Tween-80) 91 % of control; (dose: 12.5 mg/kg/injection, schedule: Q04DX003 (ip), vehicle: saline with Tween-80) 95 % of control; (dose: 25.0 mg/kg/injection, schedule: Q04DX003 (ip), vehicle: saline with Tween-80) 93 % of control.
Regarding `O=C(O)CS(=O)(=O)c1ccccc1`, the T/C by setting is: (dose: 50.0 mg/kg/injection, schedule: Q01DX009 (ip), vehicle: saline) 86 % of control; (dose: 100.0 mg/kg/injection, schedule: Q01DX009 (ip), vehicle: saline) 89 % of control.
As for `O=c1c2ccccc2[nH]c(=S)n1C1CCCC1`, the T/C is, setting by setting: under setting [4], 96 % of control; under setting [5], 108 % of control; under setting [6], 100 % of control.
Take `CCCC(=O)Nc1ccn(C2OC(COC(=O)CCC)C(OC(=O)CCC)C2OC(=O)CCC)c(=O)n1` (stereo unspecified): the T/C reads like this: under setting [15], 112 % of control; under setting [16], 114 % of control.
For the compound `CCN(CC)CCNc1c2ccc(Cl)cc2nc2c1c(C)nn2C`, the T/C runs as follows: under setting [9], 95 % of control; under setting [10], 100 % of control; under setting [11], 100 % of control.
For the compound `O=C(N/N=C/c1ccccc1)c1cc([N+](=O)[O-])cc([N+](=O)[O-])c1`, the T/C is 94 % of control under setting [15]; 100 % of control under setting [16]; 98 % of control (dose: 400.0 mg/kg/injection, schedule: Q01DX009 (ip), vehicle: Klucel (hydroxypropylcellulose) (HPC)).
Turning to `O=C1OC(=O)C2C3OC(C4CN=NC43)C12` (stereo unspecified), the T/C is 112 % of control under setting [4] and 118 % of control under setting [5].
For `NC(=O)c1[nH]cnc1/N=N/N(CCCl)Cc1ccccc1`, the T/C was 180 % of control (dose: 66.0 mg/kg/injection, schedule: Q01DX009 (ip), vehicle: Klucel (hydroxypropylcellulose) (HPC)); 264 % of control under setting [15]; 264 % of control (dose: 150.0 mg/kg/injection, schedule: Q01DX009 (ip), vehicle: Klucel (hydroxypropylcellulose) (HPC)); 227 % of control under setting [13]; 268 % of control under setting [14].
